Test results from ChEMBL document CHEMBL5325427.
≈ marks a conversion by molar mass, not a printed value.

Tested on: SARS-CoV-2
Assay: Antiviral activity against SARS CoV-2 DG614G infected human Vero cells overexpressing ACE2 compound preincubated with cells for 1 hr followed by viral infection and measured after 24 hrs by flow cytometry analysis
Assay type: functional, organism-based
Conditions: Severe acute respiratory syndrome coronavirus 2, DG614G

Structure (SMILES): COc1ccc2[nH]c3c(c2c1)C[C@]1(OC)CC[C@H]2c4[nH]c5ccccc5c4CCN2[C@@H]1C3
- IC50: 0.06 µg/mL (≈ 0.14 µM)
